Source: ChEMBL document CHEMBL3885861, “Open TG-GATES”

Species on record: Rattus norvegicus
Test: Open TG-GATES - Regimen: Single
Format: toxicity, organism-based, Sprague-Dawley
Design: regimen Single, gender Male, age 6 weeks
Conditions: in vivo, po, 1000 mg/kg, route gavage, dose level High; for APTT / Bas / Eos / Fbg / Hb / Ht / Lym / MCH / MCHC / MCV / Mono / Neu / PT / Plat / RBC / Ret / WBC: tissue Blood; for KIDNEY_L / KIDNEY_R / KIDNEY_TOTAL: tissue Kidney; for LIVER: tissue Liver; for A/G / ALP / ALT / AST / BUN / CRE / Ca / Cl / DBIL / GLC / IP / K / LDH / Na / PL / RALB / TBIL / TC / TG / TP / gamma-GTP: tissue Plasma

CN(C)[C@@H]1C(O)=C(C(N)=O)C(=O)[C@@]2(O)C(O)=C3C(=O)c4c(O)cccc4[C@@](C)(O)[C@H]3C[C@@H]12 [TETRACYCLINE]
TERMINAL_BW (3 h): 185.9 g | APTT (3 h): 15.7 s | Bas (3 h): 0% | Eos (3 h): 0.4% | Fbg (3 h): 217.2 mg/dL | Hb (3 h): 13.5 g/dL | Ht (3 h): 40.5% | Lym (3 h): 79.8% | MCH (3 h): 22.1 pg | MCHC (3 h): 33.3% | MCV (3 h): 66.4 fL | Mono (3 h): 6.4% | Neu (3 h): 13.2% | PT (3 h): 11.9 s | Plat (3 h): 103.4 x10_4/uL | RBC (3 h): 610 x10_4/ul | Ret (3 h): 9.5% | WBC (3 h): 108.1 x10_2/uL | KIDNEY_L (3 h): 0.8 g | KIDNEY_R (3 h): 0.8 g | KIDNEY_TOTAL (3 h): 1.7 g | LIVER (3 h): 8.5 g | A/G (3 h): 2.2 | ALP (3 h): 770.2 IU/L | ALT (3 h): 44 IU/L | AST (3 h): 72.8 IU/L | BUN (3 h): 15.6 mg/dL | CRE (3 h): 0.5 mg/dL | Ca (3 h): 11.1 mg/dL | Cl (3 h): 105.8 meq/L | DBIL (3 h): 0.03 mg/dL | GLC (3 h): 184.8 mg/dL | IP (3 h): 12 mg/dL | K (3 h): 5 meq/L | LDH (3 h): 142.4 IU/L | Na (3 h): 138 meq/L | PL (3 h): 132 mg/dL | RALB (3 h): 3.8 g/dL | TBIL (3 h): 0.6 mg/dL | TC (3 h): 77.8 mg/dL | TG (3 h): 36.8 mg/dL | TP (3 h): 5.6 g/dL | gamma-GTP (3 h): 1.8 IU/L | TERMINAL_BW (6 h): 184.3 g | APTT (6 h): 17.2 s | Bas (6 h): 0% | Eos (6 h): 0.4% | Fbg (6 h): 193 mg/dL | Hb (6 h): 13.4 g/dL | Ht (6 h): 40.4% | Lym (6 h): 79% | MCH (6 h): 21.9 pg | MCHC (6 h): 33.1% | MCV (6 h): 66.1 fL | Mono (6 h): 7.2% | Neu (6 h): 13.4% | PT (6 h): 12.2 s | Plat (6 h): 101.1 x10_4/uL | RBC (6 h): 612.4 x10_4/ul | Ret (6 h): 10.1% | WBC (6 h): 100.4 x10_2/uL | KIDNEY_L (6 h): 0.9 g | KIDNEY_R (6 h): 0.9 g | KIDNEY_TOTAL (6 h): 1.8 g | LIVER (6 h): 8.1 g | A/G (6 h): 1.8 | ALP (6 h): 872.8 IU/L | ALT (6 h): 39 IU/L | AST (6 h): 74.2 IU/L | BUN (6 h): 13.4 mg/dL | CRE (6 h): 0.4 mg/dL | Ca (6 h): 10.9 mg/dL | Cl (6 h): 106.4 meq/L | DBIL (6 h): 0.018 mg/dL | GLC (6 h): 186.6 mg/dL | IP (6 h): 11.9 mg/dL | K (6 h): 5.4 meq/L | LDH (6 h): 128.4 IU/L | Na (6 h): 137.4 meq/L | PL (6 h): 127 mg/dL | RALB (6 h): 3.4 g/dL | TBIL (6 h): 0.4 mg/dL | TC (6 h): 71.2 mg/dL | TG (6 h): 36.2 mg/dL | TP (6 h): 5.2 g/dL | gamma-GTP (6 h): 1.6 IU/L | TERMINAL_BW (9 h): 180.6 g | APTT (9 h): 16.8 s | Bas (9 h): 0% | Eos (9 h): 0.2% | Fbg (9 h): 199.2 mg/dL | Hb (9 h): 13.1 g/dL | Ht (9 h): 40% | Lym (9 h): 83.4% | MCH (9 h): 21.5 pg | MCHC (9 h): 32.8% | MCV (9 h): 65.4 fL | Mono (9 h): 5.8% | Neu (9 h): 11% | PT (9 h): 12.3 s | Plat (9 h): 104 x10_4/uL | RBC (9 h): 610.6 x10_4/ul | Ret (9 h): 8.9% | WBC (9 h): 66.5 x10_2/uL | KIDNEY_L (9 h): 0.8 g | KIDNEY_R (9 h): 0.8 g | KIDNEY_TOTAL (9 h): 1.6 g | LIVER (9 h): 7.7 g | A/G (9 h): 2.2 | ALP (9 h): 769.6 IU/L | ALT (9 h): 33.8 IU/L | AST (9 h): 66.4 IU/L | BUN (9 h): 12.8 mg/dL | CRE (9 h): 0.4 mg/dL | Ca (9 h): 11 mg/dL | Cl (9 h): 107.4 meq/L | DBIL (9 h): 0.044 mg/dL | GLC (9 h): 192.4 mg/dL | IP (9 h): 11.5 mg/dL | K (9 h): 4.9 meq/L | LDH (9 h): 136.2 IU/L | Na (9 h): 139.8 meq/L | PL (9 h): 128.8 mg/dL | RALB (9 h): 3.7 g/dL | TBIL (9 h): 0.4 mg/dL | TC (9 h): 69.4 mg/dL | TG (9 h): 25.6 mg/dL | TP (9 h): 5.4 g/dL | gamma-GTP (9 h): 1.2 IU/L | TERMINAL_BW (24 h): 200.2 g | APTT (24 h): 16.8 s | Bas (24 h): 0% | Eos (24 h): 0.6% | Fbg (24 h): 208.8 mg/dL | Hb (24 h): 13.4 g/dL | Ht (24 h): 40.5% | Lym (24 h): 84.2% | MCH (24 h): 21.5 pg | MCHC (24 h): 33% | MCV (24 h): 65.1 fL | Mono (24 h): 7% | Neu (24 h): 8.2% | PT (24 h): 11.9 s | Plat (24 h): 105 x10_4/uL | RBC (24 h): 621.8 x10_4/ul | Ret (24 h): 8.9% | WBC (24 h): 88.7 x10_2/uL | KIDNEY_L (24 h): 0.9 g | KIDNEY_R (24 h): 0.9 g | KIDNEY_TOTAL (24 h): 1.9 g | LIVER (24 h): 8.9 g | A/G (24 h): 2.2 | ALP (24 h): 948 IU/L | ALT (24 h): 44 IU/L | AST (24 h): 77.2 IU/L | BUN (24 h): 17.8 mg/dL | CRE (24 h): 0.5 mg/dL | Ca (24 h): 11.2 mg/dL | Cl (24 h): 105.6 meq/L | DBIL (24 h): 0.006 mg/dL | GLC (24 h): 180.4 mg/dL | IP (24 h): 9.8 mg/dL | K (24 h): 5 meq/L | LDH (24 h): 147 IU/L | Na (24 h): 141.6 meq/L | PL (24 h): 142.6 mg/dL | RALB (24 h): 3.8 g/dL | TBIL (24 h): 0.3 mg/dL | TC (24 h): 74 mg/dL | TG (24 h): 50.2 mg/dL | TP (24 h): 5.6 g/dL | gamma-GTP (24 h): 1 IU/L
